# Literature values as cited in US20090298940A1, “All Natural Antifungal And Antimicrobial Composition And Method Thereof” (priority 2008, published 2009).
# Columns and labels:
# [1] = when administered internally
# [2] = at 20° C.
compound,measurement,setting,value
"C/C=C/C=C/C(=O)[O-].[K+] [potassium sorbate, potassium (E,E)-hexa-2,4-dienoate]",tolerability,[1],well tolerated
same,solubility in water,[2],58.2%
